Consider seven compounds from paper PMC12121777 (PLOS One, 2025).

One series concerns Mtb 331/88 (i.e., H37Rv). As to the kind of experiment: MIC, micro method in Šula's semisynthetic medium, drug-susceptible Mtb. In kind it is cell-based, Mycobacterium tuberculosis. To be noted: Mycobacterium tuberculosis, H37RV.
The test system of series [1] is Mycobacterium avium 330/88. As to the kind of experiment: MIC, micro method in Šula's semisynthetic medium, M. avium. In kind it is cell-based.
Series [2] relates to Mycobacterium kansasii 6509/96. Kind of series: MIC, micro method in Šula's semisynthetic medium, M. kansasii clinical isolate. In kind it is cell-based. To be noted: read-out: MIC M. kansasii 6509/96.
Another series has as its system Mtb H37Ra pVV2. As to the kind of experiment: microbe, parasite or virus in culture. In kind it is cell-based. To be noted: Mycobacterium tuberculosis, 672 h, 28 days.
For a further series, the system named is Mtb H37Ra pVV2-dprE2. As to the kind of experiment: microbe, parasite or virus in culture. In kind it is cell-based. To be noted: Mycobacterium tuberculosis, 672 h, 28 days.
Series [3] relates to Mtb H37Ra pVV2-dprE1/dprE2. Kind of series: microbe, parasite or virus in culture. In kind it is cell-based. To be noted: Mycobacterium tuberculosis, 672 h, 28 days.
In the next series the test system is HepG2 cells. Kind of series: Cytotoxicity on HepG2 cell line (CellTiter 96). In kind it is cell-based, human. To be noted: Homo sapiens, HepG2, 24 h, read-out: IC50 HepG2.
The next series has as its system Danio rerio embryos. Kind of series: Fish embryo test (FET). In kind it is in vivo. To be noted: for mortality: as early as 48 h; for lethality: end of the 96 hours; for observed lethal endpoints: 0.001–100 µM, 96-hour exposure; for embryo coagulation, share of all observed endpoints: whole exposure period. The protocol:
Fish maintenance. A day before the experiment, adult wild-type zebrafish (Danio rerio) were transferred into plastic spawning cages at the end of the 14-hour photoperiod. All fish were spawned at the onset of the following photoperiod. Fertilized eggs were collected within 30 minutes post-fertilization and inspected for health state and developmental stage using a stereomicroscope before exposure to 5g and 4h. Tested compounds were dissolved in DMSO; its concentration in 1 mM stock solution was 0.5%.
Fish embryo test (FET). Fish embryo tests were carried out using six different concentrations (0.001, 0.01, 0.1, 1, 10, and 100 μM) of each of the tested substances and controls over 96 hours at a constant temperature of 26.9°C (±1°C) under semi-static experimental set-up. The used medium was E3 according to Cold Spring Harbor Protocols (5 mM NaCl, 0.17 mM KCl, 0.33 mM CaCl2, 0.33 mM MgSO4). Each FET consists of 24 embryos per concentration, where each embryo is considered an individual replicate. Before the tests, all wells in the testing culture well plates were saturated by overnight incubation with corresponding concentrations of 5g and 4h. Before loading the embryos into the well plates, all solutions were replaced by freshly aerated ones with corresponding concentrations or controls. All solutions in the well plates were changed again after 48 hours of exposure to minimize a potential reduction in oxygen levels and compound concentration. Fish embryos were inspected and scored for mortality, morphological changes, or hatching success rates at 24-, 48-, 72-, and 96-hours post-exposure (hpe) under an inverted microscope (Olympus IX71; Olympus Czech Group, s.r.o., Czech Republic). […] In comparison, > 90% of the embryos in the positive control (3,4-dichloroaniline) were considered dead at the end of the 96-hour exposure. Morphological endpoints in our analysis were: (1) coagulation of fertilised eggs or developing embryos; (2) lack of somite formation; (3) lack of detachment of the tail bud from the yolk sac; (4) lack of heartbeat or heart defects (oedema); (5) malformations of body parts (head and tail region); (6) growth retardation. All morphological endpoints were used to determine the mortality (a positive endpoint means the embryo was considered dead).
For both compounds, the negative controls involved pure E3 medium and E3 medium containing 0.05% DMSO.

Another series has as its system Mtb H37Rv. Kind of series: Metabolic labeling with 14C acetate and TLC lipid analysis. To be noted: 10× and 100× MIC, 14C acetate, 24 h.
[4] abbreviates: 330/88, 336 h, read-out: MIC M. avium 330/88.
Where [5] appears, read: 330/88, 504 h, read-out: MIC M. avium 330/88.

Values after ≈ are worked out from the molar mass of the structure shown. Read-outs that look alike come from different tables or passages of the source.

Turning to `CCCCCCCCNC(=O)NNC(=O)c1cc([N+](=O)[O-])cc([N+](=O)[O-])c1` [Compound 4h, 2-(3,5-Dinitrobenzoyl)-N-octylhydrazine-1-carboxamide], the MIC is 0.25 µM (≈ 0.0953 µg/mL) in the series on Mtb 331/88 (i.e., H37Rv) (336 h, 14 days); 0.5 µM (≈ 0.191 µg/mL) against Mtb 331/88 (i.e., H37Rv) (504 h, 21 days); 125 µM (≈ 47.7 µg/mL) in series [1] (setting [4]); 250 µM (≈ 95.3 µg/mL) in series [1] (setting [5]); 125 to 250 µM (≈ 47.7 to 95.3 µg/mL) in series [1] (330/88, read-out: MIC M. avium); 1 µM (≈ 0.381 µg/mL) in series [2] (6509/96, 168 h). The MIC was 1 µM (≈ 0.381 µg/mL) in series [2] (6509/96, 336 h); 1 µM (≈ 0.381 µg/mL) in series [2] (6509/96, 504 h); under 0.5 µM against Mtb H37Ra pVV2; under 0.5 µM in the series on Mtb H37Ra pVV2-dprE2; over 2.5 µM in series [3]. For the same compound, the IC50 in the series with HepG2 cells is 136 µM. Moreover, the “mortality at 1 µM” value with Danio rerio embryos is listed as “no significant mortality”. In addition, the mortality in the series on Danio rerio embryos (10 µM) and in the series with Danio rerio embryos (100 µM) was 100% each time. Also, the lethality with Danio rerio embryos (100 µM) is reported as 100%. In addition, the observed lethal endpoints result in the series with Danio rerio embryos is “embryo coagulation and growth retardation”. Moreover, the “embryo coagulation, share of all observed endpoints” value in the series with Danio rerio embryos is over 35%. Moreover, the “lipid profile of treated cells vs untreated cells” value (“lipid profile … vs untreated cells” below) in the series on Mtb H37Rv is “accumulation of TMM and TDM”.
For the compound `CCCCCCCCCCCCNC(=S)NNC(=O)c1cc([N+](=O)[O-])cc([N+](=O)[O-])c1` [Compound 4s, 2-(3,5-Dinitrobenzoyl)-N-dodecylhydrazine-1-carbothioamide], the MIC against Mtb 331/88 (i.e., H37Rv) (336 h, 14 days) was 2 µM (≈ 0.907 µg/mL); with Mtb 331/88 (i.e., H37Rv) (504 h, 21 days), 2 µM (≈ 0.907 µg/mL); in series [1] (setting [4]) it was 16 µM (≈ 7.26 µg/mL); in series [1] (setting [5]) it was 16 µM (≈ 7.26 µg/mL); in series [2] (6509/96, 168 h) it was 1 µM (≈ 0.454 µg/mL); in series [2] (6509/96, 336 h), 1 µM (≈ 0.454 µg/mL). Further, the MIC was 2 µM (≈ 0.907 µg/mL) in [2] (6509/96, 504 h); 2 µM (≈ 0.907 µg/mL) against Mtb H37Ra pVV2; 2 µM (≈ 0.907 µg/mL) in the series on Mtb H37Ra pVV2-dprE2; over 4 µM in [3]. The “lipid profile … vs untreated cells” value in the series on Mtb H37Rv was “accumulation of TMM and TDM”.
Take `CCCCCCCNc1nnc(-c2cc([N+](=O)[O-])cc([N+](=O)[O-])c2)o1` [Compound 5g, 5-(3,5-Dinitrophenyl)-N-heptyl-1,3,4-oxadiazol-2-amine]: the MIC against Mtb 331/88 (i.e., H37Rv) (336 h, 14 days) is at most 0.03 µM; with Mtb 331/88 (i.e., H37Rv) (504 h, 21 days) it was at most 0.03 µM; in series [1] (setting [4]) it was 4 µM (≈ 1.4 µg/mL); in [1] (setting [5]), 8 µM (≈ 2.79 µg/mL); in series [2] (6509/96, 168 h), at most 0.03 µM; in series [2] (6509/96, 336 h), 0.06 µM (≈ 0.021 µg/mL). Further, the MIC in [2] (6509/96, 504 h) is 0.125 µM (≈ 0.0437 µg/mL); with Mtb H37Ra pVV2, under 0.06 µM; with Mtb H37Ra pVV2-dprE2 it was under 0.06 µM; in series [3] it was over 0.3 µM. For the same compound, in the series with HepG2 cells, the IC50 was over 100 µM. Besides, the “mortality at 1 µM” value in the series on Danio rerio embryos was “no significant mortality”. The mortality in the series with Danio rerio embryos (10 µM) and with Danio rerio embryos (100 µM) was 100% throughout. Besides, the lethality in the series with Danio rerio embryos (100 µM) was 100%. In addition, in the series on Danio rerio embryos, the observed lethal endpoints entry was “pericardial oedema at lower concentrations and by growth retardation at higher concentrations”. For the same compound, the “embryo coagulation, share of all observed endpoints” value in the series with Danio rerio embryos was over 25%. Further, the “lipid profile … vs untreated cells” value in the series on Mtb H37Rv was “accumulation of TMM and TDM”.
Consider `CCCCCCCCCCCNc1nnc(-c2cc([N+](=O)[O-])cc([N+](=O)[O-])c2)o1` [Compound 5k, 5-(3,5-Dinitrophenyl)-N-undecyl-1,3,4-oxadiazol-2-amine], for which the MIC against Mtb 331/88 (i.e., H37Rv) (336 h, 14 days) amounted to 0.5 µM (≈ 0.203 µg/mL); against Mtb 331/88 (i.e., H37Rv) (504 h, 21 days), 1 µM (≈ 0.405 µg/mL); in [1] (setting [4]) it was 4 µM (≈ 1.62 µg/mL); in series [1] (setting [5]), 4 µM (≈ 1.62 µg/mL); in series [2] (6509/96, 168 h), 1 µM (≈ 0.405 µg/mL); in series [2] (6509/96, 336 h), 1 µM (≈ 0.405 µg/mL). Moreover, the MIC in series [2] (6509/96, 504 h) amounted to 1 µM (≈ 0.405 µg/mL). In addition, the IC50 in the series on HepG2 cells was over 50 µM.
Regarding `CCCCCCCCCCCCNc1nnc(-c2cc([N+](=O)[O-])cc([N+](=O)[O-])c2)o1` [Compound 5l, 5-(3,5-Dinitrophenyl)-N-dodecyl-1,3,4-oxadiazol-2-amine], the MIC against Mtb 331/88 (i.e., H37Rv) (336 h, 14 days) is 1 µM (≈ 0.419 µg/mL); against Mtb 331/88 (i.e., H37Rv) (504 h, 21 days), 1 µM (≈ 0.419 µg/mL); in [1] (setting [4]), 4 µM (≈ 1.68 µg/mL); in [1] (setting [5]) it was 8 µM (≈ 3.36 µg/mL); in [2] (6509/96, 168 h), 1 µM (≈ 0.419 µg/mL); in series [2] (6509/96, 336 h) it was 1 µM (≈ 0.419 µg/mL). For the same compound, the MIC in [2] (6509/96, 504 h) turned out to be 1 µM (≈ 0.419 µg/mL). In addition, the IC50 in the series on HepG2 cells is over 50 µM.
As to `CCCCCCCCCCCCCNc1nnc(-c2cc([N+](=O)[O-])cc([N+](=O)[O-])c2)o1` [Compound 5m, 5-(3,5-Dinitrophenyl)-N-tridecyl-1,3,4-oxadiazol-2-amine], the MIC against Mtb 331/88 (i.e., H37Rv) (336 h, 14 days) is 0.125 µM (≈ 0.0542 µg/mL); with Mtb 331/88 (i.e., H37Rv) (504 h, 21 days) it was 0.5 µM (≈ 0.217 µg/mL); in series [1] (setting [4]) it was 8 µM (≈ 3.47 µg/mL); in series [1] (setting [5]), 16 µM (≈ 6.94 µg/mL); in series [2] (6509/96, 168 h), at most 0.03 µM; in series [2] (6509/96, 336 h), 0.06 µM (≈ 0.026 µg/mL). Moreover, the MIC in series [2] (6509/96, 504 h) is 0.125 µM (≈ 0.0542 µg/mL). The concentration for half-maximal inhibition (IC50) in the series with HepG2 cells was over 50 µM.
In the case of `CCCCCCCCCCCCCCNc1nnc(-c2cc([N+](=O)[O-])cc([N+](=O)[O-])c2)o1` [Compound 5n, 5-(3,5-Dinitrophenyl)-N-tetradecyl-1,3,4-oxadiazol-2-amine], the MIC was 1 µM (≈ 0.448 µg/mL) in the series with Mtb 331/88 (i.e., H37Rv) (336 h, 14 days); 1 µM (≈ 0.448 µg/mL) in the series with Mtb 331/88 (i.e., H37Rv) (504 h, 21 days); 8 µM (≈ 3.58 µg/mL) in series [1] (setting [4]); 16 µM (≈ 7.16 µg/mL) in series [1] (setting [5]); 0.25 µM (≈ 0.112 µg/mL) in [2] (6509/96, 168 h); 0.5 µM (≈ 0.224 µg/mL) in series [2] (6509/96, 336 h). The MIC in series [2] (6509/96, 504 h) came out at 1 µM (≈ 0.448 µg/mL). The IC50 in the series with HepG2 cells is over 50 µM.
